Results: US9795679B2, “Biodegradable compositions suitable for controlled release” (INGELL TECHNOLOGIES HOLDING B.V., priority 2011, dated 2017)
Converted amounts (≈) assume the structure as drawn.

Test: Celecoxib solubility in PBS with Tween 80
Format: physicochemical
Details: PBS with 0.2% Tween 80, aqueous with cosolvent or surfactant or cyclodextrin

With `Cc1ccc(-c2cc(C(F)(F)F)nn2-c2ccc(S(N)(=O)=O)cc2)cc1` [celecoxib] as the compound, how does the solubility read?
The solubility was 100 to 200 µg/mL (≈ 262 to 524 µM).
